Test results taken from patent US20240270821A1, “GIP/GLP1/GCG TRI-RECEPTOR AGONISTS AND USES THEREOF” (priority 2023, published 2024).
Like-named read-outs stand apart in the source and are kept apart here. Starred links: 1 amine or outer side, 2 acyl side, 3 side chain; linkers in the order of their positions; H or OH if unused. Non-standard residues stand in square brackets, D forms with d. Groups on a side chain read outwards from the residue. No end group written: not given here. *: point of attachment. C20 diacid = O=C(O)CCCCCCCCCCCCCCCCCCC(=O)*; C18 diacid = O=C(O)CCCCCCCCCCCCCCCCC(=O)*; αMePhe(2-F) = C[C@](N)(Cc1ccccc1F)C(=O)O; γGlu = O=C(O)[C@H](CCC(=O)[*:2])N[*:1]; αMe4Pal = C[C@](N)(Cc1ccncc1)C(=O)O; αMeY = C[C@](N)(Cc1ccc(O)cc1)C(=O)O; 4Pal = N[C@@H](Cc1ccncc1)C(=O)O; Aad = N[C@@H](CCCC(=O)O)C(=O)O; αMeL = CC(C)C[C@](C)(N)C(=O)O; αMeS = C[C@](N)(CO)C(=O)O; Orn = NCCC[C@H](N)C(=O)O; AEEA = NCCOCCOCC(=O)O; Aib = CC(C)(N)C(=O)O

Legend:
Format in all cases: cell-based
[1] = target: T1, hGIPR (Homo sapiens, UniProt P48546); experiment: Functional cAMP activation in the presence of 0.1% casein (no HSA);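 further: intracellular cAMP rise after 30 min at 37 °C read by HTRF against a standard curve, scaled between buffer alone (0%) and top control ligand concentration (100%), four-parameter fit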
T1 sequence (P48546 22-466): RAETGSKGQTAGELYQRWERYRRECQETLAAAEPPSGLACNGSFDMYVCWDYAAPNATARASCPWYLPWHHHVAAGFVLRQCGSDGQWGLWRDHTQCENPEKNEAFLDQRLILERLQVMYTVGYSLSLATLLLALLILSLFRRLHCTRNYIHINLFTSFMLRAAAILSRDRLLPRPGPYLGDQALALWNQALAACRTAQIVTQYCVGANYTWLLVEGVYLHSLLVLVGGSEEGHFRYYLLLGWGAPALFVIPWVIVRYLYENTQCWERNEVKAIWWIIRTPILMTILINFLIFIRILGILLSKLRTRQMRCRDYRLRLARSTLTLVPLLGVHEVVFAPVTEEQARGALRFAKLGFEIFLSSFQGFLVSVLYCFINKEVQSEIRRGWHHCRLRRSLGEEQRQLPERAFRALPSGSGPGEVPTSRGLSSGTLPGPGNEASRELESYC

[2] = target: T2, hGLP-1R (Homo sapiens, UniProt P43220); experiment: as above;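 further: intracellular cAMP rise after 30 min at 37 °C read by HTRF, normalized between buffer only (0%) and maximal control ligand (100%), four-parameter variable-slope fit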
[3] = target: T1, hGIPR; experiment: Functional cAMP activity in the presence of 1% HSA
[4] = target: hGcgR (Homo sapiens, UniProt P47871); experiment: Functional cAMP activation in the presence of 0.1% casein (no HSA);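 further: intracellular cAMP rise after 30 min at 37 °C, read by HTRF against a cAMP standard curve, scaled from buffer only (0%) to maximal control ligand response (100%)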
[5] = target: T2, hGLP-1R; experiment: Functional cAMP activity in the presence of 1% HSA
[6] = target: human GcgR (Homo sapiens, UniProt P47871); experiment: Functional cAMP activity in the presence of 1% HSA
[7] = 0.1% casein, no HSA, geometric mean, read-out: Relative cAMP EC50, hGIPR
[8] = 0.1% casein, no HSA, geometric mean, read-out: Relative cAMP EC50, hGLP-1R
[9] = 0.1% casein, no HSA, geometric mean, read-out: Relative cAMP EC50, hGcgR
[10] = read-out: cAMP Rel EC50, hGLP-1R
[11] = in the presence of 0.1% casein (no HSA), geometric mean, read-out: Relative cAMP EC50, hGIPR
[12] = in the presence of 0.1% casein (no HSA), geometric mean, read-out: Relative cAMP EC50, hGLP-1R
[13] = in the presence of 0.1% casein (no HSA), geometric mean, read-out: Relative cAMP EC50, hGcgR
[14] = read-out: Relative cAMP EC50, hGIPR
[15] = read-out: Relative cAMP EC50, hGLP-1R
[16] = read-out: Relative cAMP EC50, hGcgR

Chain of hGcgR (P47871 26-477): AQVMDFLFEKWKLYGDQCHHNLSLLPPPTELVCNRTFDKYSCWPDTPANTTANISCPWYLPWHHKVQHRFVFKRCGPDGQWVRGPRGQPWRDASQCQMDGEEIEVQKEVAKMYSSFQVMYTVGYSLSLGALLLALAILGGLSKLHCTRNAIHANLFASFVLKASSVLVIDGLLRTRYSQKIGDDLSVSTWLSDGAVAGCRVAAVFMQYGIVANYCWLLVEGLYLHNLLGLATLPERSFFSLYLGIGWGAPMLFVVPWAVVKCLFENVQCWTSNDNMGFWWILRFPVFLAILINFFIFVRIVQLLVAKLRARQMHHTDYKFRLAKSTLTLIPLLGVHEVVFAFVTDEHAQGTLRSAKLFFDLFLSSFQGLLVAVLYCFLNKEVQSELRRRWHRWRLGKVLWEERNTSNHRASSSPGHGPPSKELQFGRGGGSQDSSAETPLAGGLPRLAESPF
Chain of human GcgR (P47871 26-477): as above
T2 sequence (P43220 24-463): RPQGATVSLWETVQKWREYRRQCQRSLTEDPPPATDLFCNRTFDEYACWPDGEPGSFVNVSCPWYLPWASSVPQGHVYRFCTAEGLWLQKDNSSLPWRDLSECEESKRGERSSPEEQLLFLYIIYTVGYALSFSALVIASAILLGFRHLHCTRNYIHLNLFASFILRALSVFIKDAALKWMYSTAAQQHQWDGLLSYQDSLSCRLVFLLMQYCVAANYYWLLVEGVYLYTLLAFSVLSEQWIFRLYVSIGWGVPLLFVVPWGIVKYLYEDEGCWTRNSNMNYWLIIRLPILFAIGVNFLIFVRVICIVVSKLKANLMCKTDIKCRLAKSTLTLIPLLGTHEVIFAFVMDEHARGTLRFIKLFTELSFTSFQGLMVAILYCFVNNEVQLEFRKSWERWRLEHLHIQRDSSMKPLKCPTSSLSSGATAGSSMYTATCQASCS

Substance	EC50 ([3]; read-out: cAMP Rel EC50, hGIPR) [nM]	EC50 [5, 10] [nM]	EC50 ([6]; read-out: cAMP Rel EC50, hGcgR) [nM]	EC50 [1, 11] [nM]	EC50 [2, 12] [nM]	EC50 [4, 13] [nM]	EC50 [1, 14] [nM]	EC50 [2, 15] [nM]	EC50 [4, 16] [nM]	also measured
H-Y[Aib]QGT[αMePhe(2-F)]TSD[4Pal][αMeS]I[αMeL]LD[Orn]K([γGlu-γGlu-C18 diacid])AQ[αMe4Pal]EFI[dE][αMeY]LIEGGPPS[Aib][Orn]PPP[Orn]GS-NH2 [Example 1226]	0.443	34.4	184	–	–	–	–	–	–	EC50 [1, 7]: 0.00539 nM; EC50 [2, 8]: 0.264 nM; EC50 [4, 9]: 1.65 nM
H-Y[Aib]QGTFTSD[4Pal]SK[αMeL]LDKK([AEEA-γGlu-C18 diacid])AQ[Aib]AFIEYLIEGGPSSGAPPPSGS-NH2 [Example 908]	26.7	174	980	0.246	1.2	8.11	–	–	–	–
Y[Aib]QGT[αMePhe(2-F)]TSD[4Pal]SI[αMeL]LD[Orn]K([AEEA-γGlu-C18 diacid])AQ[αMe4Pal][Orn]FI[dE][αMeY]LIEGGPSSGDPPPEAE-NH2 [Example 728]	1.45	26.7	298	–	–	–	0.0116	0.277	2.45	–
H-Y[Aib]QGTFTSD[4Pal]S[Orn][αMeL]LDKK([γGlu-γGlu-C18 diacid])AQ[αMe4Pal]AFIEYLIAGGPSSGAPPPSGSE-NH2 [Example 1009]	9.72	174	268	0.13	2.1	4.21	–	–	–	–
H-Y[Aib]QGT[αMePhe(2-F)]TSD[4Pal]SI[αMeL]LD[Orn]K([AEEA-γGlu-C18 diacid])AQ[αMe4Pal][Orn]FI[dE][αMeY]LIEGGPSSGAPPPESEE-NH2 [Example 756]	1.61	28.2	372	–	–	–	0.0096	0.212	2.26	–
Y[Aib]QGT[αMePhe(2-F)]TSD[4Pal][αMeS]ILLD[Orn]K([γGlu-γGlu-C18 diacid])AQ[Aib][Orn]FI[dE]YLIEGGPSSGEPPPSETE-NH2 [Example 555]	–	–	–	–	–	–	–	–	–	EC50 ([1]; in the presence of 0.1% casein (no HSA), geometric mean of relative EC50, read-out: Relative cAMP EC50, hGIPR): 0.0601 nM; EC50 ([2]; in the presence of 0.1% casein (no HSA), geometric mean of relative EC50, read-out: Relative cAMP EC50, hGLP-1R): 0.445 nM; EC50 ([3]; HEK-293 clonal cell line, 1% HSA, geometric mean of relative EC50, read-out: cAMP Rel EC50, hGIPR): 5.31 nM; EC50 ([4]; in the presence of 0.1% casein (no HSA), geometric mean of relative EC50, read-out: Relative cAMP EC50, hGcgR): 3.56 nM; EC50 ([5]; HEK-293 clonal cell line, 1% HSA, geometric mean of relative EC50, read-out: cAMP Rel EC50, hGLP-1R): 42 nM; EC50 ([6]; HEK-293 clonal cell line, 1% HSA, geometric mean of relative EC50, read-out: cAMP Rel EC50, hGcgR): 274 nM
H-Y[Aib]QGTFTSD[4Pal]SR[αMeL]LDKK([AEEA-γGlu-C18 diacid])AQ[Aib]AFIE[αMeY]LIEGGPSSGAPPPSGS-NH2 [Example 837]	20.7	69.6	2060	0.209	0.551	7.24	–	–	–	–
H-Y[Aib]QGT[αMePhe(2-F)]TSD[4Pal][αMeS]I[αMeL]LD[Orn]K([AEEA-γGlu-C18 diacid])AQ[αMe4Pal]EFI[dE][αMeY]LVEGGPSSGEPPPSGSEE-NH2 [Example 736]	1.23	46.3	245	–	–	–	0.014	0.489	2.85	–
H-Y[Aib]QGT[αMePhe(2-F)]TSD[4Pal][αMeS]I[αMeL]LD[Orn][Orn]([AEEA-γGlu-C18 diacid])AQ[αMe4Pal]EFI[dE][αMeY]LIEGGPSSGAPPPSGSE-NH2 [Example 1212]	0.614	38.2	230	–	–	–	–	–	–	EC50 [1, 7]: 0.00702 nM; EC50 [2, 8]: 0.357 nM; EC50 [4, 9]: 1.71 nM
H-Y[Aib]QGTFTSDYSI[αMeL]LDKQAAK([AEEA-AEEA-γGlu-C20 diacid])QFIEWLIEGGPSSGEPPPGAE-NH2 [Example 319]	–	–	–	–	–	–	–	–	–	EC50 [1]: 0.485 nM; EC50 [2]: 0.947 nM; EC50 [3]: 60.1 nM; EC50 [4]: 4.81 nM; EC50 [5]: 119 nM; EC50 [6]: 1650 nM
H-Y[Aib]QGT[αMePhe(2-F)]TSD[4Pal]SI[αMeL]LD[Orn]K([AEEA-γGlu-C18 diacid])AQ[αMe4Pal]EFI[dE][αMeY]LLEGGPSSGAPPPSGS-NH2 [Example 641]	0.832	68.3	451	–	–	–	0.00819	0.489	3.72	–
H-Y[Aib]QGT[αMePhe(2-F)]TSD[4Pal]SILLDKK([AEEA-γGlu-C18 diacid])AQ[Aib]AFIEYL[Aad]EGGPSSGAPPPSGTGE-NH2 [Example 663]	10.2	79	226	–	–	–	0.0893	1.29	1.95	–
Y[Aib]QGTFTSDFSK[αMeL]LDKK([AEEA-γGlu-C20 diacid])AQ[Aib]AFIQYLLAGGPSSGEPPPSEG-NH2 [Example 27]	72.3	464	1180	0.41	2.33	8.91	–	–	–	–
H-Y[Aib]QGTFTSD[4Pal]SQ[αMeL]LDKK([AEEA-γGlu-C18 diacid])AQ[αMe4Pal]AFIEYLLAGGPSSGAPPPSGSEE-NH2 [Example 1037]	13.7	625	291	0.221	5.95	3.31	–	–	–	–
H-Y[Aib]QGTFTSD[4Pal]S[Orn][αMeL]LDKK([γGlu-γGlu-C18 diacid])AQ[αMe4Pal]AFIEYLIAGGPSSGEPPPSGE-NH2 [Example 979]	19.2	257	359	0.181	2.72	3.34	–	–	–	–
H-Y[Aib]QGT[αMePhe(2-F)]TSD[4Pal][αMeS]I[αMeL]LD[Orn]K([AEEA-γGlu-γGlu-C18 diacid])AQ[Aib][Orn]FIEYLIEAGPSSGEPPPEEG-NH2 [Example 485]	0.869	11.8	298	–	–	–	0.0194	0.277	4.29	–
H-Y[Aib]QGT[αMePhe(2-F)]TSD[4Pal][αMeS]I[αMeL]LD[Orn]K([γGlu-γGlu-C18 diacid])AQ[Aib][Orn]FI[dE][αMeY]LQEGGPSSGEPPPEGSEE-NH2 [Example 585]	3.93	38.6	436	–	–	–	0.0801	0.601	6.25	–
H-Y[Aib]QGTFTSD[4Pal]S[Orn][αMeL]LDKK([AEEA-γGlu-C18 diacid])AQ[Aib]AFIE[αMeY]LIEGGPSSGAPPPSGS-NH2 [Example 836]	26.7	103	2100	0.294	0.794	17.1	–	–	–	–
